Test results from PubChem BioAssay AID1259407 (Chemical Carcinogenesis Research Information System (CCRIS), 2018).
Active and inactive are the calls of the source. No rule for the calls is given here.

Test system: CCRIS mutagenicity, Ames/micronucleus/aberration tests
Assay: CCRIS mutagenicity studies

Measured: mutagenic call

OCc1ccccc1
inactive: End Point: IN VIVO MICRONUCLEUS, Test System: BONE MARROW POLYCHROMATIC ERYTHROCYTES, Species: MOUSE, Strain/Sex: DDY/MALE, Route: IP inactive; negative | Test System: AMES SALMONELLA TYPHIMURIUM, Strain/Indicator: TA97, Metabolic Activation: NONE, Method: PREINCUBATION inactive; negative | Test System: AMES SALMONELLA TYPHIMURIUM, Strain/Indicator: TA97, Metabolic Activation: RAT, LIVER, S-9, AROCLOR 1254, Method: PREINCUBATION inactive; negative | Test System: AMES SALMONELLA TYPHIMURIUM, Strain/Indicator: TA98, Metabolic Activation: HAMSTER, LIVER, S-9, AROCLOR 1254, Method: PREINCUBATION inactive; negative | Test System: AMES SALMONELLA TYPHIMURIUM, Strain/Indicator: TA98, Metabolic Activation: NONE, Method: PREINCUBATION inactive; negative | Test System: AMES SALMONELLA TYPHIMURIUM, Strain/Indicator: TA98, Metabolic Activation: RAT, LIVER, S-9, AROCLOR 1254, Method: PREINCUBATION inactive; negative | Test System: AMES SALMONELLA TYPHIMURIUM, Strain/Indicator: TA100, Metabolic Activation: HAMSTER, LIVER, S-9, AROCLOR 1254, Method: PREINCUBATION inactive; negative | Test System: AMES SALMONELLA TYPHIMURIUM, Strain/Indicator: TA100, Metabolic Activation: NONE, Method: PREINCUBATION inactive; negative | Test System: AMES SALMONELLA TYPHIMURIUM, Strain/Indicator: TA100, Metabolic Activation: NONE, Method: STANDARD PLATE inactive; negative | Test System: AMES SALMONELLA TYPHIMURIUM, Strain/Indicator: TA100, Metabolic Activation: RAT, LIVER, S-9, AROCLOR 1254, Method: PREINCUBATION inactive; negative | Test System: AMES SALMONELLA TYPHIMURIUM, Strain/Indicator: TA102, Metabolic Activation: NONE, Method: PREINCUBATION inactive; negative | Test System: AMES SALMONELLA TYPHIMURIUM, Strain/Indicator: TA102, Metabolic Activation: RAT, LIVER, S-9, AROCLOR 1254, Method: PREINCUBATION inactive; negative | Test System: AMES SALMONELLA TYPHIMURIUM, Strain/Indicator: TA1535, Metabolic Activation: HAMSTER, LIVER, S-9, AROCLOR 1254, Method: PREINCUBATION inactive; negative | Test System: AMES SALMONELLA TYPHIMURIUM, Strain/Indicator: TA1535, Metabolic Activation: NONE, Method: PREINCUBATION inactive; negative | Test System: AMES SALMONELLA TYPHIMURIUM, Strain/Indicator: TA1535, Metabolic Activation: RAT, LIVER, S-9, AROCLOR 1254, Method: PREINCUBATION inactive; negative | Test System: AMES SALMONELLA TYPHIMURIUM, Strain/Indicator: TA1537, Metabolic Activation: HAMSTER, LIVER, S-9, AROCLOR 1254, Method: PREINCUBATION inactive; negative | Test System: AMES SALMONELLA TYPHIMURIUM, Strain/Indicator: TA1537, Metabolic Activation: NONE, Method: PREINCUBATION inactive; negative | Test System: AMES SALMONELLA TYPHIMURIUM, Strain/Indicator: TA1537, Metabolic Activation: RAT, LIVER, S-9, AROCLOR 1254, Method: PREINCUBATION inactive; negative | Test System: Ames Salmonella typhimurium, Strain/Indicator: TA98, Metabolic Activation: None, Method: Direct plate incorporation inactive; negative | Test System: Ames Salmonella typhimurium, Strain/Indicator: TA98, Metabolic Activation: Rat, liver, S-9, Aroclor 1254, Method: Direct plate incorporation inactive; negative | Test System: Ames Salmonella typhimurium, Strain/Indicator: TA100, Metabolic Activation: None, Method: Direct plate incorporation inactive; negative | Test System: Ames Salmonella typhimurium, Strain/Indicator: TA100, Metabolic Activation: Rat, liver, S-9, Aroclor 1254, Method: Direct plate incorporation inactive; negative | Test System: MOUSE LYMPHOMA, Strain/Indicator: L5178Y (TK+/TK-), Metabolic Activation: RAT, LIVER, S-9, AROCLOR 1254, Method: SUSPENSION/PLATE inactive; negative
